We go through five compounds from PubChem BioAssay AID1259407 (Chemical Carcinogenesis Research Information System (CCRIS), 2018).

Activity calls are given as the source filed them. The rule behind the calls is not given here.

This data set deals with CCRIS mutagenicity, Ames/micronucleus/aberration tests. Put plainly: CCRIS mutagenicity studies.
Setting [1] is: Test System: AMES SALMONELLA TYPHIMURIUM, Strain/Indicator: TA98, Metabolic Activation: HAMSTER, LIVER, S-9, AROCLOR 1254 (10%), Method: PREINCUBATION
Where [2] appears, read: Test System: AMES SALMONELLA TYPHIMURIUM, Strain/Indicator: TA98, Metabolic Activation: NONE, Method: PREINCUBATION
[3] abbreviates: Test System: AMES SALMONELLA TYPHIMURIUM, Strain/Indicator: TA98, Metabolic Activation: RAT, LIVER, S-9, AROCLOR 1254 (10%), Method: PREINCUBATION
The mark [4] stands for this setting: Test System: AMES SALMONELLA TYPHIMURIUM, Strain/Indicator: TA100, Metabolic Activation: HAMSTER, LIVER, S-9, AROCLOR 1254 (10%), Method: PREINCUBATION
Setting [5] is: Test System: AMES SALMONELLA TYPHIMURIUM, Strain/Indicator: TA100, Metabolic Activation: NONE, Method: PREINCUBATION
[6] abbreviates: Test System: AMES SALMONELLA TYPHIMURIUM, Strain/Indicator: TA100, Metabolic Activation: RAT, LIVER, S-9, AROCLOR 1254 (10%), Method: PREINCUBATION
[7] abbreviates: Test System: AMES SALMONELLA TYPHIMURIUM, Strain/Indicator: TA1535, Metabolic Activation: HAMSTER, LIVER, S-9, AROCLOR 1254 (10%), Method: PREINCUBATION
Setting [8] is: Test System: AMES SALMONELLA TYPHIMURIUM, Strain/Indicator: TA1535, Metabolic Activation: NONE, Method: PREINCUBATION
The mark [9] stands for this setting: Test System: AMES SALMONELLA TYPHIMURIUM, Strain/Indicator: TA1535, Metabolic Activation: RAT, LIVER, S-9, AROCLOR 1254 (10%), Method: PREINCUBATION
Where [10] appears, read: Test System: AMES SALMONELLA TYPHIMURIUM, Strain/Indicator: TA1537, Metabolic Activation: HAMSTER, LIVER, S-9, AROCLOR 1254 (10%), Method: PREINCUBATION
The mark [11] stands for this setting: Test System: AMES SALMONELLA TYPHIMURIUM, Strain/Indicator: TA1537, Metabolic Activation: NONE, Method: PREINCUBATION
Setting [12] is: Test System: AMES SALMONELLA TYPHIMURIUM, Strain/Indicator: TA1537, Metabolic Activation: RAT, LIVER, S-9, AROCLOR 1254 (10%), Method: PREINCUBATION

Regarding `COc1cc(/C=C/C(=O)CC(=O)/C=C/c2ccc(O)c(OC)c2)ccc1O`, the mutagenic call is “active; positive (structural changes); presence of iron significantly decreased number o” (End Point: IN VITRO CHROMOSOMAL ABERRATIONS, Test System: CHO CELLS, Metabolic Activation: NONE); “active; positive (structural changes)” (End Point: IN VITRO CHROMOSOMAL ABERRATIONS, Test System: CHO-9 CELLS, Metabolic Activation: NONE); “inactive; negative; curcumin reduced mutagenic effect of cyclophosphamide” (End Point: IN VIVO CHROMOSOMAL ABERRATIONS, Test System: BONE MARROW CELLS, Species: RAT, Strain/Sex: WISTAR/MALE, Route: GAVAGE); “active; positive (structural changes)” (End Point: In vitro chromosomal aberrations, Test System: Chinese hamster ovary (CHO-9) cells, Metabolic Activation: None); “inactive; negative” (End Point: In vitro micronucleus, Test System: Human lymphocytes, Metabolic Activation: None); “inactive; negative” under setting [1]. Also, the mutagenic call reads like this: (Test System: AMES SALMONELLA TYPHIMURIUM, Strain/Indicator: TA98, Metabolic Activation: HAMSTER, LIVER, S-9, AROCLOR 1254, Method: STANDARD PLATE) “inactive; negative”; under setting [2], “inactive; negative”; (Test System: AMES SALMONELLA TYPHIMURIUM, Strain/Indicator: TA98, Metabolic Activation: NONE, Method: STANDARD PLATE) “inactive; negative”; under setting [3], “inactive; negative”; (Test System: AMES SALMONELLA TYPHIMURIUM, Strain/Indicator: TA98, Metabolic Activation: RAT, LIVER, S-9, AROCLOR 1254, Method: STANDARD PLATE) “inactive; negative”; under setting [4], “inactive; negative”. Besides, the mutagenic call (Test System: AMES SALMONELLA TYPHIMURIUM, Strain/Indicator: TA100, Metabolic Activation: HAMSTER, LIVER, S-9, AROCLOR 1254, Method: STANDARD PLATE) is “inactive; negative”; the mutagenic call under setting [5] is “inactive; negative”; the mutagenic call (Test System: AMES SALMONELLA TYPHIMURIUM, Strain/Indicator: TA100, Metabolic Activation: NONE, Method: STANDARD PLATE) is “inactive; negative”; the mutagenic call under setting [6] is “inactive; negative”; the mutagenic call (Test System: AMES SALMONELLA TYPHIMURIUM, Strain/Indicator: TA100, Metabolic Activation: RAT, LIVER, S-9, AROCLOR 1254, Method: STANDARD PLATE) was “inactive; negative”; the mutagenic call under setting [7] was “inactive; negative”. Moreover, the mutagenic call (Test System: AMES SALMONELLA TYPHIMURIUM, Strain/Indicator: TA1535, Metabolic Activation: HAMSTER, LIVER, S-9, AROCLOR 1254, Method: STANDARD PLATE) was “inactive; negative”; the mutagenic call under setting [8] was “inactive; negative”; the mutagenic call (Test System: AMES SALMONELLA TYPHIMURIUM, Strain/Indicator: TA1535, Metabolic Activation: NONE, Method: STANDARD PLATE) is “inactive; negative”; the mutagenic call under setting [9] is “inactive; negative”; the mutagenic call (Test System: AMES SALMONELLA TYPHIMURIUM, Strain/Indicator: TA1535, Metabolic Activation: RAT, LIVER, S-9, AROCLOR 1254, Method: STANDARD PLATE) was “inactive; negative”; the mutagenic call under setting [10] is “inactive; negative”. The mutagenic call is “inactive; negative” (Test System: AMES SALMONELLA TYPHIMURIUM, Strain/Indicator: TA1537, Metabolic Activation: HAMSTER, LIVER, S-9, AROCLOR 1254, Method: STANDARD PLATE); “inactive; negative” under setting [11]; “inactive; negative” (Test System: AMES SALMONELLA TYPHIMURIUM, Strain/Indicator: TA1537, Metabolic Activation: NONE, Method: STANDARD PLATE); “inactive; negative” under setting [12]; “inactive; negative” (Test System: AMES SALMONELLA TYPHIMURIUM, Strain/Indicator: TA1537, Metabolic Activation: RAT, LIVER, S-9, AROCLOR 1254, Method: STANDARD PLATE); “inactive; negative” (Test System: AMES SALMONELLA TYPHIMURIUM, Strain/Indicator: TA1538, Metabolic Activation: HAMSTER, LIVER, S-9, AROCLOR 1254, Method: STANDARD PLATE). In addition, the mutagenic call is “inactive; negative” (Test System: AMES SALMONELLA TYPHIMURIUM, Strain/Indicator: TA1538, Metabolic Activation: NONE, Method: STANDARD PLATE) and “inactive; negative” (Test System: AMES SALMONELLA TYPHIMURIUM, Strain/Indicator: TA1538, Metabolic Activation: RAT, LIVER, S-9, AROCLOR 1254, Method: STANDARD PLATE).
For the compound `O=C(O)c1c(Cl)c(Cl)c(Cl)c(Cl)c1-c1c2cc(I)c(=O)c(I)c-2oc2c(I)c(O)c(I)cc12`, the mutagenic call (End Point: IN VIVO MICRONUCLEUS, Test System: BONE MARROW POLYCHROMATIC ERYTHROCYTES, Species: MOUSE, Strain/Sex: DDY/MALE, Route: IP) is “inactive; negative”.
For the compound `CC(=O)c1ccccc1[N+](=O)[O-]`, the mutagenic call is, setting by setting: under setting [1], “inactive; negative”; under setting [2], “inactive; negative”; under setting [3], “inactive; negative”; (Test System: AMES SALMONELLA TYPHIMURIUM, Strain/Indicator: TA98, Method: PREINCUBATION) “inactive; negative”; under setting [4], “inactive; negative”; under setting [5], “inactive; negative”. Further, the mutagenic call under setting [6] was “inactive; negative”; the mutagenic call (Test System: AMES SALMONELLA TYPHIMURIUM, Strain/Indicator: TA100, Method: PREINCUBATION) was “inactive; negative”; the mutagenic call under setting [7] is “inactive; negative”; the mutagenic call under setting [8] was “inactive; negative”; the mutagenic call under setting [9] was “inactive; negative”; the mutagenic call (Test System: AMES SALMONELLA TYPHIMURIUM, Strain/Indicator: TA1535, Method: PREINCUBATION) is “inactive; negative”. In addition, the mutagenic call by setting is: under setting [10], “inactive; negative”; under setting [11], “inactive; negative”; under setting [12], “inactive; negative”; (Test System: AMES SALMONELLA TYPHIMURIUM, Strain/Indicator: TA1537, Method: PREINCUBATION) “inactive; negative”; (Test System: AMES SALMONELLA TYPHIMURIUM, Strain/Indicator: TA1538, Metabolic Activation: NONE, Method: PREINCUBATION) “inactive; negative”; (Test System: AMES SALMONELLA TYPHIMURIUM, Strain/Indicator: TA1538, Method: PREINCUBATION) “inactive; negative”.
In the case of `CC1(C(Cl)Cl)C2[C@@H](Cl)[C@H](Cl)C1(C(Cl)Cl)[C@@H](Cl)[C@@H]2Cl` (some centres undefined), the mutagenic call under setting [5] was “inactive; negative”.
On to `N#Cc1c(Cl)c(Cl)c(Cl)c(C#N)c1Cl`, for which the mutagenic call was “active; positive” (End Point: IN VITRO CHROMOSOMAL ABERRATIONS, Test System: CHINESE HAMSTER OVARY CELLS, Metabolic Activation: NONE) and “active; positive” (End Point: IN VITRO CHROMOSOMAL ABERRATIONS, Test System: CHINESE HAMSTER OVARY CELLS, Metabolic Activation: RAT, LIVER, S-9, AROCLOR 1254).
